Source: US7393640B2, “Terminal-phosphate-labeled nucleotides with new linkers” (GE Healthcare Bio-Sciences Corp., priority 2003, dated 2008)
Where two headings read alike, the source gives them in different places.

Assays:
Phi 29 exo-polymerase = conditions: 0.7 mM MnCl2 only, 25 uM nucleotide, template SEQ ID NO: 4 (FIG. 6)
Method: Using the same primer as in example 9 and template (SEQ ID NO: 4), incorporation of dCTP-DAH-ROX at various times after the reaction was initiated, was investigated. Assay conditions were as follows: Total reaction volume: 30 ul containing 100 nM primer/template, 100 nM Phi 29 exo-polymerase, 50 mM Tris pH 7.5, 75 mM KCl, 0.7 mM MnCl2, 0.1 mM DTT, 0.3 mg/ml BSA. Reaction was initiated by addition of ROX-dCTP to a conc. of 25 uM.

[1] = test system: cloned DNA polymerase I genetically engineered to eliminate 3′-5′ exonuclease activity, 5′-3′ exonuclease activity and discrimination against …; assay: Template-directed incorporation of gamma phosphate-labeled ddNTP with shrimp alkaline phosphatase, fluorescence read-out; type: biochemical; conditions: 2 μM nucleotide, 5 mM MgCl2, 0.25 mM MnCl2, shrimp alkaline phosphatase
Method: Reactions were assembled at room temperature (23° C.) using the dideoxynucleotide of Example (1).
Referring now to FIG. 1, for template 1 (SEQ ID NO: 2) in the present example, DNA polymerase would be expected to extend the primer with labeled ddGTP. Similarly, for template 2 (SEQ ID NO: 3) in FIG. 1, DNA polymerase would be expected to extend the primer with ddATP, but not with labeled ddGTP.
(§1) Reaction conditions: A 70 μl reaction containing 25 mM Tris, pH 8.0, 5% glycerol 5 mM MgCl2, 0.5 mM beta-mercaptoethanol, 0.01% tween-20, 0.25 units shrimp alkaline phosphatase, 100 nM primer annealed to template (the next template nucleotide is either dCMP or dTMP, as indicated), and 2 μM ddGTP-CF3-Coumarin was assembled in a quartz fluorescence ultra-microcuvet in a LS-55 Luminescence Spectrometer (Perkin Elmer), operated in time drive mode. Excitation and emission wavelengths are 390 nm and 500 nm respectively. Slit widths were 5 nm for excitation slits, 15 nm for emission slits. The reaction was initiated by the addition of 0.35 μl (11 units) of a cloned DNA polymerase I genetically engineered to eliminate 3′-5′ exonuclease activity, 5′-3′ exonuclease activity and discrimination against dideoxynucleotides and 0.25 mM MnCl2.
Reactions were assembled at room temperature (23° C.) using the dideoxynucleotide of Example (2).
Referring now to FIG. 2, for template 2 (SEQ ID NO: 3) in the present example, DNA polymerase would be expected to extend the primer with labeled ddATP. Similarly, for template 1 (SEQ ID NO: 2) in FIG. 2, DNA polymerase would be expected to extend the primer with ddGTP, but not with labeled ddATP.
as §1, with “template,” for “template (the next template nucleotide is either dCMP or dTMP, as indicated),”, “ddATP-CN-Coumarin” for “ddGTP-CF3-Coumarin”, “410” for “390”, “450” for “500”

various polymerases = assay: Effect of MnCl2 on incorporation of terminal-phosphate labeled nucleotide on oligo dT/poly dA; type: biochemical; conditions: 10 uM nucleotide, 60° C.
Method: Oligo dT (35mer) was annealed with poly dA by mixing equal volumes of each at 20 uM conc, and incubating at 80° C. for 4 min and instant cooling on ice. 1 ul of this solution was mixed into a 20 ul reaction containing 25 mM Hepes, pH 8.0, 0.01% Tween-20, 10 uM dT4P-DDAO, 0.005 u/ul BAP, a polymerase at concentrations shown in FIG. 7 and various concentrations of MnCl2—and MgCl2.

[2] = test system: Thermo Sequenase I DNA polymerase; assay: Relative incorporation of phosphate labeled versus base labeled nucleotides in magnesium or manganese buffer; type: biochemical; conditions: 5 mM MnCl2 vs 5 mM MgCl2, 1 μM nucleotide, 50 degrees C., 10 minutes
Method: Reactions (10 μl, 50 degrees C., 10 minutes) contained 1× reaction buffer (25 mM HEPES 8.5, 0.01% tween-20), 3 μg activated DNA (Chromosomal DNA), 5 mM either MnCl2 (circles) or MgCl2 (squares), 1 μM either FAM-TAM-11-ddTTP (dashed lines) or ddT4P-DDAO (solid lines), with a serial 4 fold dilution of Thermo Sequenase I™ DNA polymerase from 10 units per reaction down to 0.01 units per reaction. Results (FIG. 3) were plotted out both on a linear scale and logarithmic scale to show both linearity with enzyme and relative incorporation efficiency.

[3] = Primer: Template 1 (SEQ ID NO: 2), next template nucleotide dC
[4] = Primer: Template 2 (SEQ ID NO: 3), next template nucleotide dT

Chain of Phi 29 exo-polymerase (P03680 190-575 limits assumed): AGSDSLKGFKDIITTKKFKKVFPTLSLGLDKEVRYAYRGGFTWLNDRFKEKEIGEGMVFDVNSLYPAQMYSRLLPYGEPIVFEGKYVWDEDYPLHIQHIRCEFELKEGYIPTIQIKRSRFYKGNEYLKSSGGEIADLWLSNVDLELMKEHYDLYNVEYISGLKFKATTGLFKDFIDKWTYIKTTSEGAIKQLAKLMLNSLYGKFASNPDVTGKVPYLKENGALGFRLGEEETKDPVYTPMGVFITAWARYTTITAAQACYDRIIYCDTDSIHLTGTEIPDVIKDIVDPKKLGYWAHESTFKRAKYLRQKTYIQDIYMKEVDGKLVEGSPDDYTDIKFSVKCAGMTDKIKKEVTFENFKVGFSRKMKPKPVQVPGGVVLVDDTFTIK

ROX-amidoheptyl-gamma-amido-deoxycytidine-triphosphate [dCTP-DAH-ROX]
misincorporation (Phi 29 exo-polymerase): no misincorporation takes place
misincorporation (Phi 29 exo-polymerase; listed as dCTP-γ-ROX): No misincorporation was observed

Nc1nc2c(ncn2[C@H]2CC[C@@H](COP(=O)(O)OP(=O)(O)OP(=O)(O)Oc3ccc4c(C(F)(F)F)cc(=O)oc4c3)O2)c(=O)[nH]1 [gamma labeled ddGTP, γ-(4-trifluoromethylcoumarinyl)dideoxyguanosine-5′-triphosphate]
dye emission [1, 3]: dye emission was detected
dye emission [1, 4]: No detectable dye emission

N#Cc1cc2ccc(OP(=O)(O)OP(=O)(O)OP(=O)(O)OC[C@@H]3CC[C@H](n4cnc5c(N)ncnc54)O3)cc2oc1=O [gamma labeled ddATP, γ-(3-cyanocoumarinyl)dideoxyadenosine-5′-triphosphate]
dye emission [1, 3]: No detectable dye emission
dye emission [1, 4]: dye emission was detected

Cc1cn([C@H]2C[C@H](O)[C@@H](COP(=O)(O)OP(=O)(O)OP(=O)(O)OP(=O)(O)Oc3ccc4c(c3)C(C)(C)C3=C(Cl)C(=O)C(Cl)=CC3=N4)O2)c(=O)[nH]c1=O [dT4P-DDAO, 2′-Deoxythymidine-5′-(δ-7-(9H-(1,3-dichloro-9,9-dimethylacridin-2-one)))tetraphosphate]
rate of incorporation in the absence of MnCl2 (various polymerases; 15 or 30 minutes (FIG. 7)): extremely slow
effect of MnCl2, alone or in the presence of MgCl2, on the rate of incorporation (various polymerases; 15 or 30 minutes, all the polymerases tested (FIG. 7)): major positive impact on the rate of incorporation

Cc1cn([C@H]2CC[C@@H](COP(=O)(O)OP(=O)(O)OP(=O)(O)OP(=O)(O)Oc3ccc4c(c3)C(C)(C)C3=C(Cl)C(=O)C(Cl)=CC3=N4)O2)c(=O)[nH]c1=O [ddT4P-DDAO, δ-9H(1,3-dichloro-9,9-dimethylacridin-2-one-7-yl)-dideoxythymidine-5′-tetraphosphate]
increase in incorporation efficiency in the manganese buffer relative to the magnesium buffer [2]: 28 fold
